Reference: ChEMBL document CHEMBL5038624, “Construction and activity evaluation of novel dual-target (SE/CYP51) anti-fungal agents containing amide naphthyl structure” (Eur J Med Chem, 2022)
≈ marks a conversion by molar mass, not a printed value. Calls of active or inactive are those of the source. No cut-off for these calls is given here.

Assays:
Candida albicans [1] = experiment: Inhibition of SE/CYP51 in Candida albicans ATCC SC5314 assessed as squalene level incubated for 48 hrs by LC/MS analysis; set-up: scale not given: the % may be the effect or the level left
Pichia kudriavzevii = experiment: Antifungal activity against Candida krusei ATCC 6258 assessed as reduction in fungal growth incubated for 72 hrs by CLSI protocol based broth microdilution method; format: functional
Candida albicans [2] = experiment: Antifungal activity against Candida albicans strain 17 assessed as reduction in fungal growth incubated for 72 hrs by CLSI protocol based broth microdilution method; format: functional
Candida albicans [3] = experiment: Antifungal activity against Candida albicans ATCC SC5314 infected in mouse assessed as decrease in fungal infection at 4 mg/kg,ip administrated every 2 days for 14 days; format: functional, organism-based; settings: time 14.0 day
Candida tropicalis = experiment: Antifungal activity against Candida tropicalis ATCC 1369 assessed as reduction in fungal growth incubated for 72 hrs by CLSI protocol based broth microdilution method; format: functional
[4] = Toxicity in mouse infected with Candida albicans ATCC SC5314 assessed as effect on liver at 4 mg/kg,ip administrated every 2 days for 14 days by hematoxylin-eosin staining based assay; format: organism-based; settings: in vivo, 336 h, time 14 day
Candida albicans [5] = experiment: Antifungal activity against Candida albicans strain CaR assessed as reduction in fungal growth incubated for 72 hrs by CLSI protocol based broth microdilution method; format: functional
Candida albicans [6] = experiment: Inhibition of SE/CYP51 in Candida albicans ATCC SC5314 assessed as lanosterol level incubated for 48 hrs by LC/MS analysis; set-up: scale not given: the % may be the effect or the level left
Candida albicans [7] = experiment: Induction of apoptosis against Candida albicans ATCC SC5314 assessed as late apoptotic cells measured after 48 hrs by Annexin V-FITC/propidium iodide staining based flow cytometry (reference value: 0.71 %); format: functional
Candida albicans [8] = experiment: Antifungal activity against Candida albicans ATCC SC5314 infected in mouse assessed as reduction on endothelial fungal infection at 4 mg/kg,ip administrated every 2 days for 14 days by hematoxylin-eosin staining based assay; format: functional, organism-based; settings: time 14.0 day
Candida albicans [9] = experiment: Antifungal activity against Candida albicans ATCC SC5314 assessed as irregular cell structure incubated for 48 hrs by TEM analysis; format: functional, organism-based
Candida albicans [10] = experiment: Inhibition of SE/CYP51 in Candida albicans ATCC SC5314 assessed as eburicol level incubated for 48 hrs by LC/MS analysis; set-up: scale not given: the % may be the effect or the level left
Candida albicans [11] = experiment: Inhibition of SE/CYP51 in Candida albicans ATCC SC5314 assessed as unknown sterol level incubated for 48 hrs by LC/MS analysis; set-up: scale not given: the % may be the effect or the level left
Aspergillus fumigatus = experiment: Antifungal activity against Aspergillus fumigatus KM8001 assessed as reduction in fungal growth incubated for 72 hrs by CLSI protocol based broth microdilution method; format: functional
Candida albicans [12] = experiment: Antifungal activity against Candida albicans ATCC SC5314 assessed as decrease in fungal cell density by fluorescence microscopy; format: functional, organism-based
[13] = Toxicity in mouse infected with Candida albicans ATCC SC5314 assessed as effect on lung at 4 mg/kg,ip administrated every 2 days for 14 days by hematoxylin-eosin staining based assay; format: organism-based; settings: in vivo, 336 h, time 14 day
[14] = Toxicity in mouse infected with Candida albicans ATCC SC5314 assessed as effect on kidney at 4 mg/kg,ip administrated every 2 days for 14 days by hematoxylin-eosin staining based assay; format: organism-based; settings: in vivo, 336 h, time 14 day
Candida albicans [15] = experiment: Induction of apoptosis against Candida albicans ATCC SC5314 assessed as viable cells measured after 48 hrs by Annexin V-FITC/propidium iodide staining based flow cytometry (reference value: 80.78 %); format: functional
Candida albicans [16] = experiment: Antifungal activity against Candida albicans ATCC SC5314 assessed as irregular cell structure incubated for 72 hrs by TEM analysis; format: functional, organism-based
[17] = Toxicity in mouse assessed as effect on aspartate transaminase level; settings: in vivo
[18] = Toxicity in mouse assessed as effect on alanine transaminase level; settings: in vivo
Candida albicans [19] = experiment: Inhibition of SE/CYP51 in Candida albicans ATCC SC5314 assessed as ergosterol level incubated for 48 hrs by LC/MS analysis; set-up: scale not given: the % may be the effect or the level left
[20] = Toxicity in mouse infected with Candida albicans ATCC SC5314 assessed as effect on spleen at 4 mg/kg,ip administrated every 2 days for 14 days by hematoxylin-eosin staining based assay; format: organism-based; settings: in vivo, 336 h, time 14 day
[21] = Toxicity in mouse infected with Candida albicans ATCC SC5314 assessed as effect on heart at 4 mg/kg,ip administrated every 2 days for 14 days by hematoxylin-eosin staining based assay; format: organism-based; settings: in vivo, 336 h, time 14 day
Nakaseomyces glabratus = experiment: Antifungal activity against Candida glabrata ATCC 0001 assessed as reduction in fungal growth incubated for 72 hrs by CLSI protocol based broth microdilution method; format: functional
Candida albicans [22] = experiment: Antifungal activity against Candida albicans strain 632 assessed as reduction in fungal growth incubated for 72 hrs by CLSI protocol based broth microdilution method; format: functional
[23] = Inhibition of SE in Candida albicans ATCC SC5314 measured after 30 mins by HPLC analysis
[24] = Toxicity in mouse assessed as effect on blood urea nitrogen level; settings: in vivo
Candida albicans [25] = experiment: Induction of apoptosis against Candida albicans ATCC SC5314 assessed as mild apoptotic cells measured after 48 hrs by Annexin V-FITC/propidium iodide staining based flow cytometry (Rvb =0.29 %); format: functional
[26] = biological target: Lanosterol 14-alpha demethylase (Candida albicans (strain SC5314 / ATCC MYA-2876) (Yeast), UniProt P10613); experiment: Inhibition of CYP51 in Candida albicans ATCC SC5314 measured after 30 mins by HPLC analysis
Lanosterol 14-alpha demethylase, sequence (P10613 whole entry): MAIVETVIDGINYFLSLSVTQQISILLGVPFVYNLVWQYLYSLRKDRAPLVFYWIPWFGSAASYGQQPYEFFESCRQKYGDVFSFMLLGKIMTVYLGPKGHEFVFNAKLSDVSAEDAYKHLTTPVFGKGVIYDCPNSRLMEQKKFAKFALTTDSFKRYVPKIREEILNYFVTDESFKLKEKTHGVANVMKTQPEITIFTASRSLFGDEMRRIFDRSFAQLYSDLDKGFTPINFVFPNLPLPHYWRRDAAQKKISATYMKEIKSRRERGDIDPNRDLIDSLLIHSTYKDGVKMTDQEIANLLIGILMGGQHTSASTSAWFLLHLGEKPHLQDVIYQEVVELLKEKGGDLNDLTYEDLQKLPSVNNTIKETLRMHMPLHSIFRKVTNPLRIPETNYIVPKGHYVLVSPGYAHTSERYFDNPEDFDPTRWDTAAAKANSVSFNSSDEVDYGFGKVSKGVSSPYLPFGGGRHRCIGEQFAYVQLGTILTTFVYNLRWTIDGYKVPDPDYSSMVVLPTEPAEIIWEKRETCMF

Candida albicans [27] = experiment: Antifungal activity against Candida albicans ATCC SC5314 assessed as disappearance of fungal cell boundaries incubated for 96 hrs by TEM analysis; format: functional, organism-based
Candida albicans [28] = experiment: Antifungal activity against Candida albicans SC5314 assessed as reduction in fungal growth incubated for 72 hrs by CLSI protocol based broth microdilution method; format: functional
Candida albicans [29] = experiment: Antifungal activity against Candida albicans strain 904 assessed as reduction in fungal growth incubated for 72 hrs by CLSI protocol based broth microdilution method; format: functional
Candida albicans [30] = experiment: Induction of apoptosis against Candida albicans ATCC SC5314 assessed as necrotic cells measured after 48 hrs by Annexin V-FITC/propidium iodide staining based flow cytometry (reference value: 18.22 %); format: functional
Mus musculus = experiment: Antifungal activity against Candida albicans ATCC SC5314 infected in mouse assessed as increase in body weight at 4 mg/kg,ip administrated every 2 days for 14 days; format: functional, organism-based; settings: time 14.0 day
Candida albicans [31] = experiment: Antifungal activity against Candida albicans strain 901 assessed as reduction in fungal growth incubated for 72 hrs by CLSI protocol based broth microdilution method; format: functional

## O=C(/C=C/c1cccc2ccccc12)NC(Cn1cncn1)c1ccccc1 (stereo unspecified)
Candida albicans [1]
  Activity: 29.5%
Pichia kudriavzevii
  MIC50: 0.25 µg/mL (≈ 0.679 µM)
Candida albicans [2]
  MIC50: 2 µg/mL (≈ 5.43 µM)
Candida albicans [3]
  Activity: Active
Candida tropicalis
  MIC50: 0.125 µg/mL (≈ 0.339 µM)
[4]
  Activity: Non-Toxic
Candida albicans [5]
  MIC50: 2 µg/mL (≈ 5.43 µM)
Candida albicans [6]
  Activity: 11.4%
Candida albicans [7]
  Activity: 1.24%
Candida albicans [8]
  Activity: Active
Candida albicans [9]
  Activity: Active
Candida albicans [10]
  Activity: 32.9%
Candida albicans [11]
  Activity: 7%
Aspergillus fumigatus
  MIC50: 2 µg/mL (≈ 5.43 µM)
Candida albicans [12]
  Activity: Active
[13]
  Activity: Non-Toxic
[14]
  Activity: Non-Toxic
Candida albicans [15]
  Activity: 52.27%
Candida albicans [16]
  Activity: Active
[17]
  Activity: 118 IU/L
[18]
  Activity: 101.6 IU/L
Candida albicans [19]
  Activity: 19.2%
[20]
  Activity: Non-Toxic
[21]
  Activity: Non-Toxic
Nakaseomyces glabratus
  MIC50: 0.25 µg/mL (≈ 0.679 µM)
Candida albicans [22]
  MIC50: 2 µg/mL (≈ 5.43 µM)
[23]
  IC50: 930 nM
[24]
  Activity: 6.1 mmol/L
Candida albicans [25]
  Activity: 0.26%
[26]
  IC50: 209 nM
Candida albicans [27]
  Activity: Active
Candida albicans [28]
  MIC50: 0.125 µg/mL (≈ 0.339 µM)
Candida albicans [29]
  MIC50: 2 µg/mL (≈ 5.43 µM)
Candida albicans [30]
  Activity: 46.23%
Mus musculus
  Activity: Active
Candida albicans [31]
  MIC50: 1 µg/mL (≈ 2.71 µM)
